Experimental data: ChEMBL document CHEMBL2046367, “Novel BACE1 inhibitors possessing a 5-nitroisophthalic scaffold at the P2 position” (Bioorg Med Chem Lett, 2012)

Tests used:
Beta-secretase 1 [1] = biological target: T1, Beta-secretase 1 (Homo sapiens, UniProt P56817); test: Inhibition of human recombinant BACE1 at 2 uM by FRET assay
Beta-secretase 1 [2] = biological target: T1, Beta-secretase 1; test: Inhibition of human recombinant BACE1 at 0.2 uM by FRET assay
Beta-secretase 1 [3] = biological target: T1, Beta-secretase 1; test: Inhibition of human recombinant BACE1 by FRET assay

T1 sequence (P56817 whole entry): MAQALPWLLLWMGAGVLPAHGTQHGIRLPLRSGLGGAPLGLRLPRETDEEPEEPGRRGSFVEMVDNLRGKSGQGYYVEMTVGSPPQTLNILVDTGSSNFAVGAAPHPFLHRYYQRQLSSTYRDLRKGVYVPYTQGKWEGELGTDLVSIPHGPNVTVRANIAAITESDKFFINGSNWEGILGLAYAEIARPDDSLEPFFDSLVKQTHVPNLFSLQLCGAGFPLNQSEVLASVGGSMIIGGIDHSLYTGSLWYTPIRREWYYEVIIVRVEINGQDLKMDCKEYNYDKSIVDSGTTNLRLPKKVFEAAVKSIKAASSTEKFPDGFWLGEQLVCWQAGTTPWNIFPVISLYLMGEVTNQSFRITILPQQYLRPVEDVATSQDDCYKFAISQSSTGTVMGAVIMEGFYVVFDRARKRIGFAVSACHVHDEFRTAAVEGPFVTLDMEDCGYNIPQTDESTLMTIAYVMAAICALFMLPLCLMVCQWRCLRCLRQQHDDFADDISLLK

Compound | inhibition (Beta-secretase 1 [1]) [%] | inhibition (Beta-secretase 1 [2]) [%] | IC50 (Beta-secretase 1 [3]) [nM]
CCCN(CCC)C(=O)c1cc(C(=O)N[C@@H](Cc2ccccc2)[C@H](O)C(=O)Nc2cccc(-c3nn[nH]n3)c2)cc([N+](=O)[O-])c1 | 79 | – | –
CCCC[C@H]1COCN1C(=O)c1cc(C(=O)N[C@@H](Cc2ccccc2)[C@H](O)C(=O)Nc2cccc(-c3nn[nH]n3)c2)cc([N+](=O)[O-])c1 | 92 | 59 | –
O=C(N[C@@H](Cc1ccccc1)[C@H](O)C(=O)Nc1cccc(-c2nn[nH]n2)c1)c1cc(C(=O)N2COC[C@@H]2c2ccccc2)cc([N+](=O)[O-])c1 | 98 | 88 | 19
O=C(N[C@@H](Cc1ccccc1)[C@H](O)C(=O)Nc1cccc(-c2nn[nH]n2)c1)c1cc(C(=O)N2COC[C@@H]2Cc2ccc(O)cc2)cc([N+](=O)[O-])c1 | 80 | – | –
O=C(N[C@@H](Cc1ccccc1)[C@H](O)C(=O)Nc1cccc(-c2nn[nH]n2)c1)c1cc(C(=O)N2COC[C@@H]2Cc2ccccc2)cc([N+](=O)[O-])c1 | 89 | 45 | –
O=C(N[C@@H](Cc1ccccc1)[C@H](O)C(=O)Nc1cccc(-c2nn[nH]n2)c1)c1cc(I)cc(C(=O)N2COC[C@@H]2c2ccccc2)c1 | 98 | 78 | –
COC[C@H]1CCCN1C(=O)c1cc(C(=O)N[C@@H](Cc2ccccc2)[C@H](O)C(=O)Nc2cccc(-c3nn[nH]n3)c2)cc([N+](=O)[O-])c1 | 89 | 57 | –
CSCC[C@H]1COCN1C(=O)c1cc(C(=O)N[C@@H](Cc2ccccc2)[C@H](O)C(=O)Nc2cccc(-c3nn[nH]n3)c2)cc([N+](=O)[O-])c1 | 86 | 45 | –
Cc1cc(C(=O)N[C@@H](Cc2ccccc2)[C@H](O)C(=O)Nc2cccc(-c3nn[nH]n3)c2)cc(C(=O)N2COC[C@@H]2c2ccccc2)c1 | 95 | 65 | –
O=C(N[C@@H](Cc1ccccc1)[C@H](O)C(=O)Nc1cccc(-c2nn[nH]n2)c1)c1cc(C(=O)N2CCCCCCCC2)cc([N+](=O)[O-])c1 | 28 | – | –
Cc1cc(C(=O)N[C@@H](Cc2ccccc2)[C@H](O)C(=O)Nc2cccc(-c3nnn[nH]3)c2)cc(C(=O)N2COC[C@@H]2c2ccccc2)c1 | – | – | 67
O=C(N[C@@H](Cc1ccccc1)[C@H](O)C(=O)Nc1cccc(-c2nn[nH]n2)c1)c1cc(C(=O)N2COC[C@@H]2c2cc(F)c(F)c(F)c2)cc([N+](=O)[O-])c1 | 81 | 41 | –
CC[C@H]1COCN1C(=O)c1cc(C(=O)N[C@@H](Cc2ccccc2)[C@H](O)C(=O)Nc2cccc(-c3nn[nH]n3)c2)cc([N+](=O)[O-])c1 | 92 | 54 | –
O=C(N[C@@H](Cc1ccccc1)[C@H](O)C(=O)Nc1cccc(-c2nn[nH]n2)c1)c1cc(Br)cc(C(=O)N2COC[C@@H]2c2ccccc2)c1 | 98 | 84 | 25
O=C(N[C@@H](Cc1ccccc1)[C@H](O)C(=O)Nc1cccc(-c2nn[nH]n2)c1)c1cc(C(=O)N2CCCCC2)cc([N+](=O)[O-])c1 | 49 | – | –
O=C(N[C@@H](Cc1ccccc1)[C@H](O)C(=O)Nc1cccc(-c2nn[nH]n2)c1)c1cc(C(=O)N2COC[C@@H]2c2ccc(F)cc2)cc([N+](=O)[O-])c1 | 99 | 91 | 13
CC(C)C[C@H]1COCN1C(=O)c1cc(C(=O)N[C@@H](Cc2ccccc2)[C@H](O)C(=O)Nc2cccc(-c3nn[nH]n3)c2)cc([N+](=O)[O-])c1 | 85 | 42 | –
O=C(N[C@@H](Cc1ccccc1)[C@H](O)C(=O)Nc1cccc(-c2nn[nH]n2)c1)c1cc(C(=O)N2CCCCCCC2)cc([N+](=O)[O-])c1 | 80 | 38 | –

Compound | inhibition (Beta-secretase 1 [1]) [%] | inhibition (Beta-secretase 1 [2]) [%] | IC50 (Beta-secretase 1 [3]) [nM]
C[C@H]1COCN1C(=O)c1cc(C(=O)N[C@@H](Cc2ccccc2)[C@H](O)C(=O)Nc2cccc(-c3nn[nH]n3)c2)cc([N+](=O)[O-])c1 | 33 | – | –
O=C(N[C@@H](Cc1ccccc1)[C@H](O)C(=O)Nc1cccc(-c2nn[nH]n2)c1)c1cccc(C(=O)N2COC[C@@H]2c2ccccc2)c1 | 85 | 46 | 192
O=C(N[C@@H](Cc1ccccc1)[C@H](O)C(=O)Nc1cccc(-c2nn[nH]n2)c1)c1cc(C(=O)N2CCOCC2)cc([N+](=O)[O-])c1 | 0 | – | –
CC(C)(C)[C@H]1COCN1C(=O)c1cc(C(=O)N[C@@H](Cc2ccccc2)[C@H](O)C(=O)Nc2cccc(-c3nn[nH]n3)c2)cc([N+](=O)[O-])c1 | 71 | – | –
C[C@@H](NC(=O)c1cc(C(=O)N[C@@H](Cc2ccccc2)[C@H](O)C(=O)Nc2cccc(-c3nn[nH]n3)c2)cc([N+](=O)[O-])c1)c1ccc(F)cc1 | 87 | 50 | –
Nc1cc(C(=O)N[C@@H](Cc2ccccc2)[C@H](O)C(=O)Nc2cccc(-c3nn[nH]n3)c2)cc(C(=O)N2COC[C@@H]2c2ccccc2)c1 | 49 | – | –
O=C(O)c1cc(C(=O)N[C@@H](Cc2ccccc2)[C@H](O)C(=O)Nc2cccc(-c3nn[nH]n3)c2)cc(C(=O)N2COC[C@@H]2c2ccccc2)c1 | 91 | 60 | 122
O=C(N[C@@H](Cc1ccccc1)[C@H](O)C(=O)Nc1cccc(-c2nn[nH]n2)c1)c1cc(C(=O)N2CCCC2)cc([N+](=O)[O-])c1 | 24 | – | –
O=C(N[C@@H](Cc1ccccc1)[C@H](O)C(=O)Nc1cccc(-c2nn[nH]n2)c1)c1cc(C(=O)N2CCCCCC2)cc([N+](=O)[O-])c1 | 60 | – | –
O=C(N[C@@H](Cc1ccccc1)[C@H](O)C(=O)Nc1cccc(-c2nn[nH]n2)c1)c1cc(C(=O)N2COC[C@@H]2CC2CCCCC2)cc([N+](=O)[O-])c1 | 50 | – | –
CCC(C)[C@H]1COCN1C(=O)c1cc(C(=O)N[C@@H](Cc2ccccc2)[C@H](O)C(=O)Nc2cccc(-c3nn[nH]n3)c2)cc([N+](=O)[O-])c1 (stereo partly specified) | 94 | 62 | –
O=C(N[C@@H](Cc1ccccc1)[C@H](O)C(=O)Nc1cccc(-c2nn[nH]n2)c1)c1cc(C(=O)N2COC[C@@H]2Cc2c[nH]c3ccccc23)cc([N+](=O)[O-])c1 | 57 | – | –
C[C@@H](NC(=O)c1cc(C(=O)N[C@@H](Cc2ccccc2)[C@H](O)C(=O)Nc2cccc(-c3nn[nH]n3)c2)cc([N+](=O)[O-])c1)c1ccccc1 | 83 | 44 | –
CCC[C@H]1COCN1C(=O)c1cc(C(=O)N[C@@H](Cc2ccccc2)[C@H](O)C(=O)Nc2cccc(-c3nn[nH]n3)c2)cc([N+](=O)[O-])c1 | 93 | 57 | –
O=C(N[C@@H](Cc1ccccc1)[C@H](O)C(=O)Nc1cccc(-c2nnn[nH]2)c1)c1cc(I)cc(C(=O)N2COC[C@@H]2c2ccccc2)c1 | – | – | 34
CC(=O)Oc1cc(C(=O)N[C@@H](Cc2ccccc2)[C@H](O)C(=O)Nc2cccc(-c3nn[nH]n3)c2)cc(C(=O)N2COC[C@@H]2c2ccccc2)c1 | 79 | – | –
CC(C)[C@H]1COCN1C(=O)c1cc(C(=O)N[C@@H](Cc2ccccc2)[C@H](O)C(=O)Nc2cccc(-c3nn[nH]n3)c2)cc([N+](=O)[O-])c1 | 88 | 44 | –
CC(C)(C)c1cc(C(=O)N[C@@H](Cc2ccccc2)[C@H](O)C(=O)Nc2cccc(-c3nn[nH]n3)c2)cc(C(=O)N2COC[C@@H]2c2ccccc2)c1 | 63 | – | –
